Laboratory results published in ChEMBL document CHEMBL1201862, “PubChem BioAssay data set” (2004).
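Briefly, cells in 96-well plates were exposed to five compound concentrations for 48 h, and endpoints were estimated by linear interpolation. GI50 is the concentration that inhibits growth by half.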 Activity calls are given as the source filed them. Rule as the data show it: active = GI50 up to about 1.1 µM and inactive = higher.

Experiments:
Assay in all cases: NCI tumour cell line growth inhibition, 48 h
KM12 = test system: KM12
OVCAR-3 = test system: OVCAR-3
RPMI-8226 = test system: RPMI-8226
IGROV-1 = test system: IGROV-1
NCI-H226 = test system: NCI-H226
SNB-75 = test system: SNB-75
DU-145 = test system: DU-145
MDA-MB-435 = test system: MDA-MB-435
BT-549 = test system: BT-549
SK-OV-3 = test system: SK-OV-3
NCI/ADR-RES = test system: NCI/ADR-RES
UACC-257 = test system: UACC-257
NCI-H23 = test system: NCI-H23
ACHN = test system: ACHN
SN12C = test system: SN12C
A498 = test system: A498
HOP-92 = test system: HOP-92
SF-295 = test system: SF-295
TK-10 = test system: TK-10
SK-MEL-2 = test system: SK-MEL-2
M14 = test system: M14
CCRF-CEM = test system: CCRF-CEM
RXF 393 = test system: RXF 393
SK-MEL-5 = test system: SK-MEL-5
UACC-62 = test system: UACC-62
MDA-N = test system: MDA-N
NCI-H522 = test system: NCI-H522
HCC 2998 = test system: HCC 2998
PC-3 = test system: PC-3
OVCAR-4 = test system: OVCAR-4
MOLT-4 = test system: MOLT-4
UO-31 = test system: UO-31
HCT-15 = test system: HCT-15
U-251 = test system: U-251
SK-MEL-28 = test system: SK-MEL-28
OVCAR-5 = test system: OVCAR-5
786-0 = test system: 786-0
T47D = test system: T47D
Malme-3M = test system: Malme-3M
OVCAR-8 = test system: OVCAR-8
SF-268 = test system: SF-268
K562 = test system: K562
A549 = test system: A549
NCI-H460 = test system: NCI-H460
HCT-116 = test system: HCT-116
EKVX = test system: EKVX
CAKI-1 = test system: CAKI-1
SW-620 = test system: SW-620
LOX IMVI = test system: LOX IMVI
MDA-MB-231 = test system: MDA-MB-231
SF-539 = test system: SF-539
HOP-62 = test system: HOP-62
HL-60 = test system: HL-60
Hs-578T = test system: Hs-578T
COLO 205 = test system: COLO 205
MCF7 = test system: MCF7
SNB-19 = test system: SNB-19
HT-29 = test system: HT-29

COc1ccc(-c2nc(N3CCCC3)no2)cc1
GI50 (KM12): 88.5 µM (inactive)
GI50 (OVCAR-3): 72.8 µM (inactive)
GI50 (RPMI-8226): 32.7 µM (inactive)
GI50 (IGROV-1): 18.9 µM (inactive)
GI50 (NCI-H226): 42.7 µM (inactive)
GI50 (SNB-75): 34.1 µM (inactive)
GI50 (DU-145): 43.2 µM (inactive)
GI50 (MDA-MB-435): > 100 µM (inactive)
GI50 (BT-549): 43.3 µM (inactive)
GI50 (SK-OV-3): 58.9 µM (inactive)
GI50 (NCI/ADR-RES): 44.5 µM (inactive)
GI50 (UACC-257): > 100 µM (inactive)
GI50 (NCI-H23): 54.6 µM (inactive)
GI50 (ACHN): 35.8 µM (inactive)
GI50 (SN12C): 74 µM (inactive)
GI50 (A498): 31.6 µM (inactive)
GI50 (HOP-92): 48.4 µM (inactive)
GI50 (SF-295): 21.2 µM (inactive)
GI50 (TK-10): > 100 µM (inactive)
GI50 (SK-MEL-2): 46.1 µM (inactive)
GI50 (M14): 81.3 µM (inactive)
GI50 (CCRF-CEM): 20.7 µM (inactive)
GI50 (RXF 393): 22 µM (inactive)
GI50 (SK-MEL-5): 53.6 µM (inactive)
GI50 (UACC-62): 31 µM (inactive)
GI50 (MDA-N): 67 µM (inactive)
GI50 (NCI-H522): 39.1 µM (inactive)
GI50 (HCC 2998): 73.5 µM (inactive)
GI50 (PC-3): 41.6 µM (inactive)
GI50 (OVCAR-4): 34 µM (inactive)
GI50 (MOLT-4): > 100 µM (inactive)
GI50 (UO-31): 49.4 µM (inactive)
GI50 (HCT-15): 58.9 µM
GI50 (U-251): 86.3 µM (inactive)
GI50 (SK-MEL-28): > 100 µM (inactive)
GI50 (OVCAR-5): > 86.7 µM (inactive)
GI50 (786-0): 36.3 µM (inactive)
GI50 (T47D): 26.5 µM (inactive)
GI50 (Malme-3M): 11.6 µM (inactive)
GI50 (OVCAR-8): 34.5 µM (inactive)
GI50 (SF-268): 53 µM (inactive)
GI50 (K562): 60.3 µM (inactive)
GI50 (A549): 38 µM (inactive)
GI50 (NCI-H460): 33 µM (inactive)
GI50 (HCT-116): > 91.8 µM (inactive)
GI50 (EKVX): 25.9 µM (inactive)
GI50 (CAKI-1): 51.6 µM (inactive)
GI50 (SW-620): > 100 µM (inactive)
GI50 (LOX IMVI): 33 µM (inactive)
GI50 (MDA-MB-231): 50.1 µM (inactive)
GI50 (SF-539): 24 µM (inactive)
GI50 (HOP-62): 27.9 µM (inactive)
GI50 (HL-60): 1.5 µM (inactive)
GI50 (Hs-578T): 24.9 µM (inactive)
GI50 (COLO 205): > 100 µM (inactive)
GI50 (MCF7): 43.2 µM (inactive)
GI50 (SNB-19): 44.1 µM (inactive)
GI50 (HT-29): 54.7 µM (inactive)

Fc1ccc(C(OCCN2CCC3CCC(C2)N3C/C=C/c2cccs2)c2ccc(F)cc2)cc1 (stereo unspecified)
GI50 (KM12): 4.44 µM (inactive)
GI50 (OVCAR-3): 10.6 µM (inactive)
GI50 (RPMI-8226): 0.0133 µM (active)
GI50 (IGROV-1): 10.1 µM (inactive)
GI50 (NCI-H226): 7.19 µM (inactive)
GI50 (SNB-75): 14.7 µM (inactive)
GI50 (DU-145): 12.3 µM (inactive)
GI50 (MDA-MB-435): 6.98 µM (inactive)
GI50 (BT-549): 13.2 µM (inactive)
GI50 (SK-OV-3): 12.9 µM (inactive)
GI50 (NCI/ADR-RES): 6.24 µM (inactive)
GI50 (UACC-257): 3.66 µM (inactive)
GI50 (NCI-H23): 8.34 µM (inactive)
GI50 (ACHN): 11.8 µM (inactive)
GI50 (SN12C): 5.69 µM (inactive)
GI50 (A498): 9.06 µM (inactive)
GI50 (HOP-92): 6.25 µM (inactive)
GI50 (SF-295): 10.5 µM (inactive)
GI50 (TK-10): 11.1 µM (inactive)
GI50 (SK-MEL-2): 10.7 µM (inactive)
GI50 (M14): 4.25 µM (inactive)
GI50 (CCRF-CEM): 8.09 µM (inactive)
GI50 (RXF 393): 3.77 µM (inactive)
GI50 (SK-MEL-5): 3.04 µM (inactive)
GI50 (UACC-62): 11.5 µM (inactive)
GI50 (MDA-N): 10.3 µM (inactive)
GI50 (NCI-H522): 5.02 µM (inactive)
GI50 (HCC 2998): 3.21 µM (inactive)
GI50 (PC-3): 5.75 µM (inactive)
GI50 (OVCAR-4): 7.36 µM (inactive)
GI50 (MOLT-4): 1.21 µM (inactive)
GI50 (UO-31): 12 µM (inactive)
GI50 (HCT-15): 4.06 µM
GI50 (U-251): 5.64 µM (inactive)
GI50 (SK-MEL-28): 6.47 µM (inactive)
GI50 (OVCAR-5): 13.1 µM (inactive)
GI50 (786-0): 8.49 µM (inactive)
GI50 (T47D): 3.56 µM (inactive)
GI50 (Malme-3M): 6.03 µM (inactive)
GI50 (OVCAR-8): 4.06 µM (inactive)
GI50 (SF-268): 12.2 µM (inactive)
GI50 (A549): 11 µM (inactive)
GI50 (NCI-H460): 3.08 µM (inactive)
GI50 (HCT-116): 3.45 µM (inactive)
GI50 (EKVX): 4.41 µM (inactive)
GI50 (CAKI-1): 10.2 µM (inactive)
GI50 (SW-620): 5.98 µM (inactive)
GI50 (LOX IMVI): 6.38 µM (inactive)
GI50 (MDA-MB-231): 9.31 µM (inactive)
GI50 (SF-539): 10.6 µM (inactive)
GI50 (HOP-62): 13.6 µM (inactive)
GI50 (Hs-578T): 12.1 µM (inactive)
GI50 (COLO 205): 1.96 µM (inactive)
GI50 (MCF7): 7.69 µM (inactive)
GI50 (SNB-19): 13.9 µM (inactive)
GI50 (HT-29): 1.37 µM (inactive)

Cc1cn(C2CC(N=[N+]=[N-])C(CO)O2)c(=O)n(CCCCO)c1=O (stereo unspecified)
GI50 (KM12): > 100 µM (inactive)
GI50 (OVCAR-3): > 100 µM (inactive)
GI50 (RPMI-8226): > 100 µM (inactive)
GI50 (IGROV-1): > 100 µM (inactive)
GI50 (NCI-H226): > 100 µM (inactive)
GI50 (SNB-75): 88.3 µM (inactive)
GI50 (DU-145): > 100 µM (inactive)
GI50 (MDA-MB-435): > 100 µM (inactive)
GI50 (BT-549): > 100 µM (inactive)
GI50 (SK-OV-3): > 100 µM (inactive)
GI50 (NCI/ADR-RES): > 100 µM (inactive)
GI50 (UACC-257): > 100 µM (inactive)
GI50 (NCI-H23): > 100 µM (inactive)
GI50 (ACHN): > 100 µM (inactive)
GI50 (SN12C): > 100 µM (inactive)
GI50 (A498): > 100 µM (inactive)
GI50 (HOP-92): > 100 µM (inactive)
GI50 (SF-295): > 100 µM (inactive)
GI50 (TK-10): > 100 µM (inactive)
GI50 (SK-MEL-2): > 100 µM (inactive)
GI50 (M14): > 100 µM (inactive)
GI50 (CCRF-CEM): > 100 µM (inactive)
GI50 (RXF 393): > 100 µM (inactive)
GI50 (UACC-62): > 100 µM (inactive)
GI50 (MDA-N): > 100 µM (inactive)
GI50 (NCI-H522): > 100 µM (inactive)
GI50 (HCC 2998): > 100 µM (inactive)
GI50 (PC-3): > 100 µM (inactive)
GI50 (OVCAR-4): > 100 µM (inactive)
GI50 (MOLT-4): > 100 µM (inactive)
GI50 (UO-31): > 100 µM (inactive)
GI50 (HCT-15): > 100 µM
GI50 (U-251): > 100 µM (inactive)
GI50 (SK-MEL-28): > 100 µM (inactive)
GI50 (OVCAR-5): > 100 µM (inactive)
GI50 (786-0): > 100 µM (inactive)
GI50 (T47D): > 100 µM (inactive)
GI50 (Malme-3M): > 100 µM (inactive)
GI50 (OVCAR-8): > 100 µM (inactive)
GI50 (SF-268): > 100 µM (inactive)
GI50 (K562): > 100 µM (inactive)
GI50 (A549): > 100 µM (inactive)
GI50 (NCI-H460): > 100 µM (inactive)
GI50 (HCT-116): > 100 µM (inactive)
GI50 (EKVX): > 100 µM (inactive)
GI50 (CAKI-1): > 100 µM (inactive)
GI50 (SW-620): > 100 µM (inactive)
GI50 (LOX IMVI): > 100 µM (inactive)
GI50 (MDA-MB-231): > 100 µM (inactive)
GI50 (SF-539): > 100 µM (inactive)
GI50 (HOP-62): > 100 µM (inactive)
GI50 (HL-60): > 100 µM (inactive)
GI50 (Hs-578T): > 100 µM (inactive)
GI50 (COLO 205): > 100 µM (inactive)
GI50 (MCF7): > 100 µM (inactive)
GI50 (SNB-19): > 100 µM (inactive)
GI50 (HT-29): > 100 µM (inactive)
